# The source made the active and inactive calls.
# Experiments:
# [1] = molecular target: DNA dC->dU-editing enzyme APOBEC-3A (Homo sapiens, UniProt P31941); test: APOBEC3A DNA deaminase inhibitors, dose response, biochemical (AID 504722); assay type: functional
# [2] = molecular target: DNA dC->dU-editing enzyme APOBEC-3G (Homo sapiens, UniProt Q9HC16); test: Dose Response confirmation of small molecule APOBEC3G DNA Deaminase Inhibitors via a fluorescence-based single-stranded DNA deaminase assay. [Related pubchem assays (depositor defined):AID493012, AID493028]; assay type: functional
# DNA dC->dU-editing enzyme APOBEC-3G, sequence (Q9HC16 whole entry): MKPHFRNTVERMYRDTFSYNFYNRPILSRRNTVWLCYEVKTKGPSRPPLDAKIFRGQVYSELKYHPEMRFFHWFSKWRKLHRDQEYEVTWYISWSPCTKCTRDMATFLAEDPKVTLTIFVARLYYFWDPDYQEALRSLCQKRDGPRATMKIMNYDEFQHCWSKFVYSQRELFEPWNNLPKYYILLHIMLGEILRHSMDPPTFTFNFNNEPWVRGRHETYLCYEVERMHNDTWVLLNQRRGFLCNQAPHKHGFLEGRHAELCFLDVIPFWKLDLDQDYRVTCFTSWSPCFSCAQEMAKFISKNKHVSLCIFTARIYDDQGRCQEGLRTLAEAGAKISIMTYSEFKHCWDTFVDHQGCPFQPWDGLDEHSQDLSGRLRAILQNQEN
# [3] = molecular target: T1, E3 ubiquitin-protein ligase XIAP (Homo sapiens, UniProt P98170); test: Counter Screen using XIAP-Bir3 for Chemical Antagonists of Bir1/2 domains of IAP-family anti-apoptotic proteins. [Related pubchem assays (depositor defined):AID1018, AID1449, AID1514, AID1638, AID1749, AID1750, AID488957, AID488963]
# T1 sequence (P98170 whole entry): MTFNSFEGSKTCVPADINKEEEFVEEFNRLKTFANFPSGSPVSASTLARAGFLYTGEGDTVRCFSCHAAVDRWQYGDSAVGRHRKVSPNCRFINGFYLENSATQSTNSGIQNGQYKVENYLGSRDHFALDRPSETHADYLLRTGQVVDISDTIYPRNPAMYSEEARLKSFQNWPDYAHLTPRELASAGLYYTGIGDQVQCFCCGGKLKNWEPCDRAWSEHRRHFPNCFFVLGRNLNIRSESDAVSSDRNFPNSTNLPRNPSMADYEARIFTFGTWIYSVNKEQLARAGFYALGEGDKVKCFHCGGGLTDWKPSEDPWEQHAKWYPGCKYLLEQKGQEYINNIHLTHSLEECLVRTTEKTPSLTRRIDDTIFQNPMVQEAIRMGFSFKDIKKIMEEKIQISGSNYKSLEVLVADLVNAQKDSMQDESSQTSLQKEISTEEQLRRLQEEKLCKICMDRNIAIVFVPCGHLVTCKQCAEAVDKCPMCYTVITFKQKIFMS
# [4] = molecular target: T1, E3 ubiquitin-protein ligase XIAP; test: XIAP antagonists, biochemical, IAP family, fluorescence polarization (AID 1018); assay type: functional
# [5] = THP-1 cell cytotoxicity, dose response, cytotoxicity control for non-replicating M. tuberculosis project (AID 489025); assay type: functional
# [6] = Vero E6 cell cytotoxicity, dose response, cytotoxicity control for non-replicating M. tuberculosis project, secondary assay (AID 492998); assay type: functional, VeroE6; conditions: Vero C1008
# cells = assay type: functional
# Cytochrome P450 2D6 = Cytochrome P450 2D6 (Homo sapiens, UniProt P10635);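 also: CYP2D6 member of a cytochrome P450 panel assay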
# Cytochrome P450 2D6, sequence (P10635 whole entry): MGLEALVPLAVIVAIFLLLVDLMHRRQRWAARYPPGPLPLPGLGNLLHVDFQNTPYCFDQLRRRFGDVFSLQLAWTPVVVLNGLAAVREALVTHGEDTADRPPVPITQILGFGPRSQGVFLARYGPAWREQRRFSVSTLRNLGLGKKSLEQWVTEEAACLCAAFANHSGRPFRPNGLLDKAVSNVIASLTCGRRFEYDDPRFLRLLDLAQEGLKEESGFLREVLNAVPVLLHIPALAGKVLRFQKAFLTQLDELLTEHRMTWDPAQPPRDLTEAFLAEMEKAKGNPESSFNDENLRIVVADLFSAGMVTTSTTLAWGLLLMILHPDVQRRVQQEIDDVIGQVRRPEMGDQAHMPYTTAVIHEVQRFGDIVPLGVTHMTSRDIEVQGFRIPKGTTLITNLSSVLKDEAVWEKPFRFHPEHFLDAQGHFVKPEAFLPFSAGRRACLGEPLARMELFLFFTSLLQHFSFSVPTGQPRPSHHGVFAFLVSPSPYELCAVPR
# Cytochrome P450 2C19 = Cytochrome P450 2C19 (Homo sapiens, UniProt P33261); test: Cytochrome panel assay with activity outcomes. Panel member name: p450-cyp2c19 Compounds with AC50 equal or less than 10 uM are considered active; assay type: functional; conditions: read-out: AC50
# Cytochrome P450 2C19, sequence (P33261 whole entry): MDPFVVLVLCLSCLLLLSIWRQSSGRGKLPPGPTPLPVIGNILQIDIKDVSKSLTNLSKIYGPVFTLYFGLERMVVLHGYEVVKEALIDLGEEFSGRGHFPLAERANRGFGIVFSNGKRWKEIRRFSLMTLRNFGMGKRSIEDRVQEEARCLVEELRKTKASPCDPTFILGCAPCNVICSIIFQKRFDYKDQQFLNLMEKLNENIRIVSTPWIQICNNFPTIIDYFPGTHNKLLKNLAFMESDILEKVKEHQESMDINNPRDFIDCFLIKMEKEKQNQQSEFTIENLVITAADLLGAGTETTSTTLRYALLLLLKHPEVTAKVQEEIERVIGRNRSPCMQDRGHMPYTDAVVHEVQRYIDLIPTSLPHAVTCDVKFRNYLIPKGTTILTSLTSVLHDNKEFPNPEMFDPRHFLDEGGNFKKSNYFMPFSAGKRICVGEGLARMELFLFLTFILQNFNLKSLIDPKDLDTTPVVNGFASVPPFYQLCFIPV
# Cytochrome P450 1A2 = molecular target: T2, Cytochrome P450 1A2 (Homo sapiens, UniProt P05177);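 also: PubChem cytochrome P450 panel assay, CYP1A2 panel member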
# T2 sequence (P05177 whole entry): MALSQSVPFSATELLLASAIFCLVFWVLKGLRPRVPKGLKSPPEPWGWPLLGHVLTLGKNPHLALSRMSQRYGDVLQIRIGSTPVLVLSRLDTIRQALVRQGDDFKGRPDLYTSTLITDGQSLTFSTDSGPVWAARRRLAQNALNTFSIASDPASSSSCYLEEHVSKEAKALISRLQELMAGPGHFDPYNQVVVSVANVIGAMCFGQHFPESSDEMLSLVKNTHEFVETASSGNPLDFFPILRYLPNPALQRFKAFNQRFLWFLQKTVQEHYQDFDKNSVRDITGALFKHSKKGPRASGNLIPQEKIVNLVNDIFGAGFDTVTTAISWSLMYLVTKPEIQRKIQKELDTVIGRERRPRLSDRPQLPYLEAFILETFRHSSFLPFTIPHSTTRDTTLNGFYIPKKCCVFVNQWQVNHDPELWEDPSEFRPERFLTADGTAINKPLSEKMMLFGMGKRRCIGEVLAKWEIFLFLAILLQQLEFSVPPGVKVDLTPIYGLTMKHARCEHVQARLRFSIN
# Cytochrome P450 2C9 [7] = molecular target: T3, Cytochrome P450 2C9 (Homo sapiens, UniProt P11712)
# T3 sequence (P11712 whole entry): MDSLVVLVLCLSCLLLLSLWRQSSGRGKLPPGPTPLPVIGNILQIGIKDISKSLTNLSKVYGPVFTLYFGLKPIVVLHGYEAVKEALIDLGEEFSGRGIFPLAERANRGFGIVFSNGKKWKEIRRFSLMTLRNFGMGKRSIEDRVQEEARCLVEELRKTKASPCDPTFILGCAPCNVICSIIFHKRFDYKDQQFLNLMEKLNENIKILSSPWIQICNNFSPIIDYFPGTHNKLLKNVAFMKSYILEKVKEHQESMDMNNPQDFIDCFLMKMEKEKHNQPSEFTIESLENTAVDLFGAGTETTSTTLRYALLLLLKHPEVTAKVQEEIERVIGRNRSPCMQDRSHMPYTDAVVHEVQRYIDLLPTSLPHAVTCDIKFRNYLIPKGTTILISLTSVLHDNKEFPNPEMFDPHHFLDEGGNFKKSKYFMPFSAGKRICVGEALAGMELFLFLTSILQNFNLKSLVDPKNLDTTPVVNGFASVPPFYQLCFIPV
# Tumor necrosis factor = Tumor necrosis factor (Homo sapiens, UniProt P01375); test: TNFa-triggered NF-kB activation inhibitors, SAR follow-up, cell-based, revised (AID 2337); assay type: functional
# Tumor necrosis factor, sequence (P01375 whole entry, the tested form may be a part): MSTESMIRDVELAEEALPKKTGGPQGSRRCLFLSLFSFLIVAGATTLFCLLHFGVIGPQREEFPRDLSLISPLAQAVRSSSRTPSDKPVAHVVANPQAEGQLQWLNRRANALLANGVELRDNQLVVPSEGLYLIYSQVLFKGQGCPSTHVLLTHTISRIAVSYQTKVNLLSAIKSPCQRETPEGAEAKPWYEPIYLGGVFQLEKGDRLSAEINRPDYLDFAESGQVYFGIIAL
# [8] = molecular target: T4, Nucleotide-binding oligomerization domain-containing protein 1 (Homo sapiens, UniProt Q9Y239); test: NOD1 signaling inhibitors, SAR follow-up, revised (AID 2333); assay type: functional
# T4 sequence (Q9Y239 whole entry): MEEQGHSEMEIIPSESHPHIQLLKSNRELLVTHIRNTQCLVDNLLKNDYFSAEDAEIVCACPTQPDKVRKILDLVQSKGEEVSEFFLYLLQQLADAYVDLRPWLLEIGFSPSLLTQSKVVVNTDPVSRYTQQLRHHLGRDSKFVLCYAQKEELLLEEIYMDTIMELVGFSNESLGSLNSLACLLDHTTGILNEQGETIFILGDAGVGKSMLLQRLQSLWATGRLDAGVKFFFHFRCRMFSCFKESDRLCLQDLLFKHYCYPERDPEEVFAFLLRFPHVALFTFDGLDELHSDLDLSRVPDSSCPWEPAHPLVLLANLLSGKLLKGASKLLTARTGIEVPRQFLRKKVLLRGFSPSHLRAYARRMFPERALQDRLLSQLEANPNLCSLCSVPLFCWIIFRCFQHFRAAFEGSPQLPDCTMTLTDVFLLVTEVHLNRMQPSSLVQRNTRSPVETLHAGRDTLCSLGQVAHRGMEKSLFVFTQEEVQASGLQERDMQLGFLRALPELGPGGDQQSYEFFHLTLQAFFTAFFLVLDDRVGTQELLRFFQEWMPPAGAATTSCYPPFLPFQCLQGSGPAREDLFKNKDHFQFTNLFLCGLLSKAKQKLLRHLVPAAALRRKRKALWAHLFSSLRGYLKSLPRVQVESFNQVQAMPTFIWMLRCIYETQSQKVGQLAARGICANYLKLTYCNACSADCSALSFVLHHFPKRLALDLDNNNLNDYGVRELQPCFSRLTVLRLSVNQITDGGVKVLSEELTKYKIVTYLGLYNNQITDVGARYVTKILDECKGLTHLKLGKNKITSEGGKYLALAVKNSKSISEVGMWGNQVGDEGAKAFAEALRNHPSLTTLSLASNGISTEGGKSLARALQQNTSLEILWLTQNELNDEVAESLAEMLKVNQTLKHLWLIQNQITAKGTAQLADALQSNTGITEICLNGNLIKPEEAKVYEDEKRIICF
# [9] = molecular target: Nucleotide-binding oligomerization domain-containing protein 2 (Homo sapiens, UniProt Q9HC29); test: PubChem AID 2334; assay type: functional
# Nucleotide-binding oligomerization domain-containing protein 2, sequence (Q9HC29 whole entry, the tested form may be a part): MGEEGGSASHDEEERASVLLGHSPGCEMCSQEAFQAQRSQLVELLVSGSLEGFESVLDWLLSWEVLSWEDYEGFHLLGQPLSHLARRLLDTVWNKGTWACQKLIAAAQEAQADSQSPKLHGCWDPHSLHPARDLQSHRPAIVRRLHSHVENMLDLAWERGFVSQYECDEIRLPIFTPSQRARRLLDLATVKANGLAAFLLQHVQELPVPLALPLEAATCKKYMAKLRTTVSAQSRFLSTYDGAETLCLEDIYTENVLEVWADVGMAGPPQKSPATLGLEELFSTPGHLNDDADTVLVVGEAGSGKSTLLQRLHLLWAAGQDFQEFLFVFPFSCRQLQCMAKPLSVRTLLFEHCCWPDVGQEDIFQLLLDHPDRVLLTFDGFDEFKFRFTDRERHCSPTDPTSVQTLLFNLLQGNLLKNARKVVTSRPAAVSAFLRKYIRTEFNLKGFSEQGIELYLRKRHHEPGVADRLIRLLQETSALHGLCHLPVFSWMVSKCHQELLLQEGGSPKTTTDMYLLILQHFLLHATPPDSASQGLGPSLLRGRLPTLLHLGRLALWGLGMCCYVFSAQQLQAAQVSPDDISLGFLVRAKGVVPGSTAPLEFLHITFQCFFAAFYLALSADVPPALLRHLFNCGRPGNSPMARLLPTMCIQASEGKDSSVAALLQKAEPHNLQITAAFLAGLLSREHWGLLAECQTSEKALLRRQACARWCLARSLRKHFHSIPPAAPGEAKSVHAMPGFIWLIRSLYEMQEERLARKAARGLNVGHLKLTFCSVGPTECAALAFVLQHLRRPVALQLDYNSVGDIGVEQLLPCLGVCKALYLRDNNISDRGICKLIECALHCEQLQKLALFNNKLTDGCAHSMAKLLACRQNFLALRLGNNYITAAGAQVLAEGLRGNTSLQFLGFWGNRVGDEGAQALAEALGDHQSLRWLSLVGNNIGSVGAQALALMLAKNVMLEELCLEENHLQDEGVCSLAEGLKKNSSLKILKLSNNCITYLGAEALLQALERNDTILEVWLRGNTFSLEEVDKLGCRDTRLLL
# HEK293 = test: cells; conditions: Homo sapiens;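 also: cells exposed to compound for 14 hours overnight before viability readout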
# [10] = molecular target: T5, DNA repair and recombination protein RAD54-like (Homo sapiens, UniProt Q92698); test: inhibitors of human RAD54 branch migration, confirmation, biochemical, fluorescence, cherry-picked samples, dose series (AID 651657); assay type: functional
# T5 sequence (Q92698 whole entry): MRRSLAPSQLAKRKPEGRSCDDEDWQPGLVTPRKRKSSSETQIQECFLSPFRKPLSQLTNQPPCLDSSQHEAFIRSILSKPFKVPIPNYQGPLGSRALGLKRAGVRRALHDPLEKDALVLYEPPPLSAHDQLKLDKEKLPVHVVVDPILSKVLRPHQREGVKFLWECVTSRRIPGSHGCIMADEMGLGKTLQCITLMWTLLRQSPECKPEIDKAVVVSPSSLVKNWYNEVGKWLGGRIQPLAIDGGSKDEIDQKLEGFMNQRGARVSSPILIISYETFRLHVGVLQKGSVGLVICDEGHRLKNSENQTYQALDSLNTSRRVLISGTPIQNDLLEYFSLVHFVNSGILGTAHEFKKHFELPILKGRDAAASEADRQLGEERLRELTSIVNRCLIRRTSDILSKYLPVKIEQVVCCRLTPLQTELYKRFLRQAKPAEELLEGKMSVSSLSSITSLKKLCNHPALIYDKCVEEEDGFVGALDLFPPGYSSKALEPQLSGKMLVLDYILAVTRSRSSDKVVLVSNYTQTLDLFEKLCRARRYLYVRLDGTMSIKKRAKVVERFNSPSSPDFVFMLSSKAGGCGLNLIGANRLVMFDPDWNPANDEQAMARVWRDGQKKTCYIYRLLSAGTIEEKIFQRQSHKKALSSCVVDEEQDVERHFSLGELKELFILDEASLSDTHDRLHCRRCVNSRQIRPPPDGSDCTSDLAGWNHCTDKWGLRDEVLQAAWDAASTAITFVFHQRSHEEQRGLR
# Cytochrome P450 2C9 [11] = molecular target: T3, Cytochrome P450 2C9; remark: listed apart in the source
# Cytochrome P450 3A4 = Cytochrome P450 3A4 (Homo sapiens, UniProt P08684);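 also: CYP3A4 tested as one member of a cytochrome P450 panel screen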
# SUMO-activating enzyme = SUMO-activating enzyme (Homo sapiens, UniProt Q9UBT2); test: SUMOylation inhibitor hit validation, confirmation, SUMOylation inhibitor project, biochemical, AlphaScreen (AID 2018); assay type: functional
# SUMO-activating enzyme, sequence (Q9UBE0 whole entry): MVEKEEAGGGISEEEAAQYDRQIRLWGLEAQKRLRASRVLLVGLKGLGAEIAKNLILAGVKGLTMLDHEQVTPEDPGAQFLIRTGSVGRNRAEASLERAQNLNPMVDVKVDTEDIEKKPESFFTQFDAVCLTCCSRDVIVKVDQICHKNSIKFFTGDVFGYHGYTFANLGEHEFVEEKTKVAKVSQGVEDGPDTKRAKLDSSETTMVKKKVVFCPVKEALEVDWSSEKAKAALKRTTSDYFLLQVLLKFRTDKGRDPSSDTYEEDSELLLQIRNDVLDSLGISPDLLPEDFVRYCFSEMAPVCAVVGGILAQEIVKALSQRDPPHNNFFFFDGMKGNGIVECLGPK
# SUMO-activating enzyme, sequence (Q9UBT2 whole entry): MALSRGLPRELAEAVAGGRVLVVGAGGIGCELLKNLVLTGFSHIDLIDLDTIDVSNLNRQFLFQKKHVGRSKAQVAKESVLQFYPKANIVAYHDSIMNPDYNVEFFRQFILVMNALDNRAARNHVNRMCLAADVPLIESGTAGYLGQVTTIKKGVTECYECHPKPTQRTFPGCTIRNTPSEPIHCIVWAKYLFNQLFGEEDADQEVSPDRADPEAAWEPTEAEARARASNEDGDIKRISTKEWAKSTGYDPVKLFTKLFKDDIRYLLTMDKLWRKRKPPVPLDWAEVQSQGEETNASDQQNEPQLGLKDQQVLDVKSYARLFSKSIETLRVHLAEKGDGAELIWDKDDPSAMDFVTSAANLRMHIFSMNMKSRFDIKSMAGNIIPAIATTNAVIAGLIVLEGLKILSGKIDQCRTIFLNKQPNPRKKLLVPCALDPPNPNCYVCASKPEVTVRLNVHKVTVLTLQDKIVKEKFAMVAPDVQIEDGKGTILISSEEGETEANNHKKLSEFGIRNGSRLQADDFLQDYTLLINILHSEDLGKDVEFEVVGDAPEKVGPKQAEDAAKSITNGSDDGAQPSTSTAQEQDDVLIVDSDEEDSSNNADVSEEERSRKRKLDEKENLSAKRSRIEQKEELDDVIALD
# Hexokinase HKDC1 = molecular target: T6, Hexokinase HKDC1 (Homo sapiens, UniProt Q2TB90); test: HKDC1 hexokinase inhibitors, dose response, biochemical, W721R variant (AID 504729); assay type: functional
# T6 sequence (Q2TB90 whole entry): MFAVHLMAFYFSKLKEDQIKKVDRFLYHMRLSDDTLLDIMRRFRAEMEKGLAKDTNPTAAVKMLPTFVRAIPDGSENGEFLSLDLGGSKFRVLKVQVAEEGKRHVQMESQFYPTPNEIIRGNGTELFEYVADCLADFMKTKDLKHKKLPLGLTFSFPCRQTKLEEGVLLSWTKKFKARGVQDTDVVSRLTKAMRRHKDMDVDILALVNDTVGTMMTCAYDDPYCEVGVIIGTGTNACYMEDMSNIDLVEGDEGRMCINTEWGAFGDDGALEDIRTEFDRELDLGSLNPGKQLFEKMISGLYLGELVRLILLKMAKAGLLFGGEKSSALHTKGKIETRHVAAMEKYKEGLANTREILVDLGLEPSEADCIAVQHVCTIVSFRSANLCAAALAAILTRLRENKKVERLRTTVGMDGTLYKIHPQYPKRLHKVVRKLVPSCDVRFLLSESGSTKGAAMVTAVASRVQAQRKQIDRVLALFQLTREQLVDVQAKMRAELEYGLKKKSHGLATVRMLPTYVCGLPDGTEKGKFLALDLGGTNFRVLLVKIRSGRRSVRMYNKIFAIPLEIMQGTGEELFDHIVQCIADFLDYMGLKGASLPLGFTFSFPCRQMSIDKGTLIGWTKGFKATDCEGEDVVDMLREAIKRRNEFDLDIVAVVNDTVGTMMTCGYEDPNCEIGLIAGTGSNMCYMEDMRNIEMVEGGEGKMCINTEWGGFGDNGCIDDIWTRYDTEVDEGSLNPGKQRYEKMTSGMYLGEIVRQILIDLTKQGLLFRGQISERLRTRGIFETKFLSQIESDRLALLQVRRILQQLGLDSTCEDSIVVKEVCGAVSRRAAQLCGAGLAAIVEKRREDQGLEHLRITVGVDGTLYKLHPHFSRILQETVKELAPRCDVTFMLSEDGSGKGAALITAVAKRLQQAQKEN
# [12] = test system: Streptococcus sp. 'group A'; test: growth inhibition of control SK(-) GAS strain, dose response, counter-screen for streptokinase expression inhibitor project, luminescence, kanamycin, BacTiterGlo, confirmation (AID 1900); assay type: functional, organism-based
# Large T antigen = Large T antigen (Simian virus 40, UniProt P03070); assay type: functional, Betapolyomavirus macacae;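 also: Confirmatory-stage PubChem screen for compounds that inhibit SV40 T antigen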
# Streptococcus = test: Group A Streptococcus viability loss, dose response, counter-screen for streptokinase expression inhibitor project, luminescence, BacTiterGlo (AID 1915); assay type: functional, organism-based;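 also: potency for reduction of bacterial viability or growth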
# fMet-Leu-Phe receptor = molecular target: T7, fMet-Leu-Phe receptor (Homo sapiens, UniProt P21462); test: FPR ligands, dose response (AID 519); assay type: functional
# T7 sequence (P21462 whole entry): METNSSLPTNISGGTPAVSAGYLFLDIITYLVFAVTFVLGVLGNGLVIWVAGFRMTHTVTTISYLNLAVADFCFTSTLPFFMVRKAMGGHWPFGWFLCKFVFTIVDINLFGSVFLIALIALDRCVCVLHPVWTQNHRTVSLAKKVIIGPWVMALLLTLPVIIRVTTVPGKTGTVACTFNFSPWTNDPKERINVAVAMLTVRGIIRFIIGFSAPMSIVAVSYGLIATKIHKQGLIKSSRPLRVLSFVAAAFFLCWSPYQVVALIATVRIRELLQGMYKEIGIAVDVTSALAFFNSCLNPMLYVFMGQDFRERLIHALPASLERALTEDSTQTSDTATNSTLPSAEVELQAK
# DNA dC->dU-editing enzyme APOBEC-3A, sequence (P31941 whole entry): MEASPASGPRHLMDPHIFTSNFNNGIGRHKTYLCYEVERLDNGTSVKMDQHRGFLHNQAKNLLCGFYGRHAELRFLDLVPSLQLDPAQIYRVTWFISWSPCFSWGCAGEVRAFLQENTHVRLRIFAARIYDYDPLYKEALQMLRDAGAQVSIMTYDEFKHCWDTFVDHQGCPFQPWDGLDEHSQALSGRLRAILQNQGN
smiles,measurement,setting,value
Cn1cccc1/C=N/n1c(S)nnc1-c1ccccc1,IC50,[1],> 100 µM (inactive)
same,IC50,[2],1.78 µM (active)
COc1ccc(NC(=O)CCCN2C(=O)/C(=C\c3ccco3)SC2=S)cc1,IC50,[3],> 25 µM (inactive)
same,IC50,[4],> 100 µM (not active)
same,CC50,[5],> 40 µM (active)
same,CC50,[6],16 µM (active)
same,IC50,cells,23.4 µM (active)
CC(C)(/N=N\C(C)(C)C(=N)N)C(=N)N.Cl,AC50,Cytochrome P450 2D6,inconclusive
COCCn1nnnc1C(C(C)C)N(Cc1ccccc1)Cc1cc2cc(OC)ccc2nc1O (stereo not drawn),IC50,[3],> 100 µM (inactive)
same,IC50,[4],> 100 µM (not active)
Cc1scc(C(=O)NN=C(S)NCC2CCCO2)c1C (stereo not drawn),AC50,Cytochrome P450 2C19,6.31 µM (inconclusive)
same,AC50,Cytochrome P450 1A2,11.2 µM (inconclusive)
same,AC50,Cytochrome P450 2D6,inconclusive
same,AC50,Cytochrome P450 2C9 [7],inconclusive
CC(/C=C/c1ccccc1)=NNC(=O)c1cccc(Br)c1,IC50,Tumor necrosis factor,> 20 µM (inactive)
same,IC50,[8],> 20 µM (inactive)
same,IC50,[9],> 20 µM (inactive)
same,IC50,HEK293,> 20 µM (inactive)
CCN1CCc2c(sc(NC(=O)c3ccc(S(=O)(=O)N4CCOCC4)cc3)c2C(=O)OC)C1.Cl,AC50,Cytochrome P450 2C19,31.6 µM (inconclusive)
same,AC50,[10],12.8 µM (active)
same,AC50,Cytochrome P450 2C9 [11],5.01 µM (inconclusive)
same,AC50,Cytochrome P450 2D6,inconclusive
same,AC50,Cytochrome P450 3A4,inconclusive
CC(=O)Nc1nc2ccccc2n1Cc1ccccc1,IC50,Tumor necrosis factor,> 20 µM (inactive)
same,IC50,[8],> 20 µM (inactive)
same,IC50,[9],> 20 µM (inactive)
same,AC50,Cytochrome P450 2C9 [11],35.5 µM (inconclusive)
same,IC50,HEK293,> 20 µM (inactive)
O=C1N/C(=N\c2ccc3ccccc3c2)S/C1=C/c1ccco1,IC50,SUMO-activating enzyme,14 µM (active)
CC(=O)N1CC[n+]2c(-c3ccc([N+](=O)[O-])cc3)csc21,IC50,[1],> 100 µM (inactive)
same,IC50,[2],13.3 µM (active)
CCCc1nc2oc3c(NCCOCCO)ncnc3c2c2c1COC(C)(C)C2,IC50,Hexokinase HKDC1,12.4 µM (active)
CCCCNC(=O)c1sc(=S)n2c1[nH]c(=O)c1ccccc12,EC50,[12],11.2 µM (active)
same,IC50,Large T antigen,79.6 µM (active)
same,EC50,Streptococcus,13.1 µM (active)
same,IC50,Hexokinase HKDC1,18.8 µM (active)
same,Ki,fMet-Leu-Phe receptor,19.6 µM (inactive)
Cc1nonc1C(=O)NN=Cc1ccc([N+](=O)[O-])o1,IC50,Tumor necrosis factor,> 20 µM (inactive)
same,IC50,[8],16.4 µM (active)
same,IC50,[9],19.7 µM (active)
same,IC50,HEK293,> 20 µM (inactive)
COc1ccccc1/C=C/C=N/n1c(S)nnc1-c1ccccn1,IC50,[1],> 100 µM (inactive)
same,IC50,[2],2.67 µM (active)
